# Patent US20250179032A1, “HETEROCYCLIC INHIBITORS OF GLUT9 FOR TREATMENT OF DISEASE” (HORIZON THERAPEUTICS IRELAND DAC, priority 2022, published 2025)
# Target: T1, H. sapiens SLC2A9 variant 2 (GLUT9B) (Homo sapiens, UniProt Q9NRM0)
# T1 sequence (Q9NRM0 1-511 isoform Q9NRM0-2): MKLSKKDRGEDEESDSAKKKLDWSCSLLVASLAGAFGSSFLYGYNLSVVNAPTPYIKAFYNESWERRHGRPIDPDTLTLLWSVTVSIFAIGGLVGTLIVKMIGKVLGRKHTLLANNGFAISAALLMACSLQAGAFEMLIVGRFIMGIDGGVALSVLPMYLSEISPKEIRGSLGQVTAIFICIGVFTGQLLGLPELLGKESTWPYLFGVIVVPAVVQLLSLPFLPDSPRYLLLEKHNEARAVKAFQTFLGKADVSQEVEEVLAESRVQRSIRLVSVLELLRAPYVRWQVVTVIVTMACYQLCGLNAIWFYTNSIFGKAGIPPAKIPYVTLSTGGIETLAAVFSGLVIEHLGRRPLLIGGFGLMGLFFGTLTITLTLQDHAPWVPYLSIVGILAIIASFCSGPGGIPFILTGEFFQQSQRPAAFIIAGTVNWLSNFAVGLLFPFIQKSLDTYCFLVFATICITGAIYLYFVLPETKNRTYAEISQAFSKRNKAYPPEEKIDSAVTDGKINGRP
# Assay: GLUT9 functional assay: uric acid uptake in HEK293T cells, allantoin formation by MS/MS as proxy of GLUT9B inhibition
# Assay type: cell-based
# Conditions: 15 minute assay; HEK293T cells stably expressing GLUT9B and transiently A. oryzae uricase; uric acid 0.3 mM, 37° C.; read-out: 15 min IC50
# Outline: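 HEK293T cells stably expressing human GLUT9B and transiently expressing A. oryzae uricase, exposed across a 12-point curve to 0.3 mM uric acid (Km) in sodium gluconate buffer pH 7.4 for 15 or 60 min at 37° C. Allantoin in lysates quantified by RapidFire MS/MS (positive ion) against a matrix-matched standard curve as proxy for uptake.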
row,IC50 [nM],SMILES
1,> 2000,"COCCCc1cnc(-c2cc(C(F)(F)F)c3occc3c2)c(N2CCC(C(=O)O)CC2)n1 [Compound 237, 1-(6-(3-methoxypropyl)-3-(7-(trifluoromethyl)benzofuran-5-yl)pyrazin-2-yl)piperidine-4-carboxylic acid]"

# Same assay, conditions: 60 minute assay; HEK293T cells stably expressing GLUT9B and transiently A. oryzae uricase; uric acid 0.3 mM, 37° C.; read-out: 60 min IC50
row,SMILES,IC50 [nM]
1,"COCCCc1cnc(-c2cccc3nn(C)cc23)c(N2CCC(C(=O)O)CC2)n1 [Compound 215, 1-(6-(3-methoxypropyl)-3-(2-methyl-2H-indazol-4-yl)pyrazin-2-yl)piperidine-4-carboxylic acid]",> 2000
2,"COCCCc1cnc(-c2cnc3c(c2)NCCO3)c(N2CCC(C(=O)O)CC2)n1 [Compound 216, 1-(3-(2,3-dihydro-1H-pyrido[2,3-b][1,4]oxazin-7-yl)-6-(3-methoxypropyl)pyrazin-2-yl)piperidine-4-carboxylic acid]",> 2000
3,"COCCCc1cnc(-c2cnc3nn(C)cc3c2)c(N2CCC(C(=O)O)CC2)n1 [Compound 218, 1-(6-(3-methoxypropyl)-3-(2-methyl-2H-pyrazolo[3,4-b]pyridin-5-yl)pyrazin-2-yl)piperidine-4-carboxylic acid]",> 2000
4,"COCCCc1cnc(-c2ccnc3cc(OC)ccc23)c(N2CCC(C(=O)O)CC2)n1 [Compound 221, 1-(6-(3-methoxypropyl)-3-(7-methoxyquinolin-4-yl)pyrazin-2-yl)piperidine-4-carboxylic acid]",> 2000
5,"COCCCc1cnc(-c2ccnc3cc(F)c(OC)cc23)c(N2CCC(C(=O)O)CC2)n1 [Compound 222, 1-(3-(7-fluoro-6-methoxyquinolin-4-yl)-6-(3-methoxypropyl)pyrazin-2-yl)piperidine-4-carboxylic acid]",> 2000
6,"COCCCc1cnc(-c2cc3ccoc3c(F)c2F)c(N2CCC(C(=O)O)CC2)n1 [Compound 223, 1-(3-(6,7-difluorobenzofuran-5-yl)-6-(3-methoxypropyl)pyrazin-2-yl)piperidine-4-carboxylic acid]",< 500
7,"COCCCCc1cnc(-c2cc(F)c3occc3c2)c(N2CCC(C(=O)O)CC2)n1 [Compound 227, 1-(3-(7-fluorobenzofuran-5-yl)-6-(4-methoxybutyl)pyrazin-2-yl)piperidine-4-carboxylic acid]",< 500
8,"COCCCCCc1cnc(-c2cc(F)c3occc3c2)c(N2CCC(C(=O)O)CC2)n1 [Compound 228, 1-(3-(7-fluorobenzofuran-5-yl)-6-(5-methoxypentyl)pyrazin-2-yl)piperidine-4-carboxylic acid]",< 500
9,"COCCCc1cnc(-c2ccc3c(c2)COC3=O)c(N2CCC(C(=O)O)CC2)c1 [Compound 232, 1-(5-(3-methoxypropyl)-2-(1-oxo-1,3-dihydroisobenzofuran-5-yl)pyridin-3-yl)piperidine-4-carboxylic acid]",< 500
10,"COCCCc1cnc(-c2cc(OC(F)(F)F)c3occc3c2)c(N2CCC(C(=O)O)CC2)n1 [Compound 238, 1-(6-(3-methoxypropyl)-3-(7-(trifluoromethoxy)benzofuran-5-yl)pyrazin-2-yl)piperidine-4-carboxylic acid]",500 to 2000
11,"COCCCc1cnc(-c2cc(C(F)F)c3occc3c2)c(N2CCC(C(=O)O)CC2)n1 [Compound 240, 1-(3-(7-(difluoromethyl)benzofuran-5-yl)-6-(3-methoxypropyl)pyrazin-2-yl)piperidine-4-carboxylic acid]",< 500
12,"COCCCc1cnc(-c2ccc3occc3n2)c(N2CCC(C(=O)O)CC2)n1 [Compound 241, 1-(3-(furo[3,2-b]pyridin-5-yl)-6-(3-methoxypropyl)pyrazin-2-yl)piperidine-4-carboxylic acid]",> 2000
13,"COCCCc1cnc(-c2cc(F)c3occc3c2)c(N2CCCC(C(=O)O)CC2)n1 (stereo not drawn) [Compound 243, 1-(3-(7-fluorobenzofuran-5-yl)-6-(3-methoxypropyl)pyrazin-2-yl)azepane-4-carboxylic acid]",< 500
14,"COCCCc1cnc(-c2cc(F)c3c(c2)OCO3)c(N2CCCC(C(=O)O)CC2)n1 (stereo not drawn) [Compound 244, 1-(3-(7-fluorobenzo[d][1,3]dioxol-5-yl)-6-(3-methoxypropyl)pyrazin-2-yl)azepane-4-carboxylic acid]",< 500
15,"COCCCc1cnc(-c2cc(F)c3occc3c2)c(N2CCCC(C(=O)O)CC2)c1 (stereo not drawn) [Compound 245, 1-(2-(7-Fluorobenzofuran-5-yl)-5-(3-Methoxypropyl)Pyridin-3-yl)azepane-4-carboxylic acid]",< 500
16,"COCCCc1cnc(-c2cc(F)c3c(c2)OCO3)c(N2CCCC(C(=O)O)CC2)c1 (stereo not drawn) [Compound 246, 1-(2-(7-fluorobenzo[d][1,3]dioxol-5-yl)-5-(3-methoxypropyl)pyridin-3-yl)azepane-4-carboxylic acid]",< 500
17,"COCCCc1cnc(-c2ccc3c(c2)OCO3)c(N2CCC3(CC(C(=O)O)C3)C2)c1 (stereo not drawn) [Compound 247, 6-(2-(benzo[d][1,3]dioxol-5-yl)-5-(3-methoxypropyl)pyridin-3-yl)-6-azaspiro[3.4]octane-2-carboxylic acid]",500 to 2000
18,"COCCCc1cnc(-c2ccc3c(c2)OCO3)c(N2CC3(CC(C(=O)O)CO3)C2)c1 (stereo not drawn) [Compound 249, 2-(2-(benzo[d][1,3]dioxol-5-yl)-5-(3-methoxypropyl)pyridin-3-yl)-5-oxa-2-azaspiro[3.4]octane-7-carboxylic acid]",> 2000
19,"COCCCc1cnc(-c2ccc3c(c2)OCO3)c(N2CC3(CC(C(=O)O)C3)C2)c1 [Compound 250, 2-(2-(benzo[d][1,3]dioxol-5-yl)-5-(3-methoxypropyl)pyridin-3-yl)-2-azaspiro[3.3]heptane-6-carboxylic acid]",> 2000
20,"COCCCc1cnc(-c2ccc3c(c2)OCO3)c(N2CC(C(=O)O)C2)c1 [Compound 251, 1-(2-(benzo[d][1,3]dioxol-5-yl)-5-(3-methoxypropyl)pyridin-3-yl)azetidine-3-carboxylic acid]",> 2000
21,"COCCCc1cnc(-c2ccc3c(c2)OCO3)c(N2CC(OC)(C(=O)O)C2)c1 [Compound 252, 1-(2-(benzo[d][1,3]dioxol-5-yl)-5-(3-methoxypropyl)pyridin-3-yl)-3-methoxyazetidine-3-carboxylic acid]",> 2000

# Further lines, results first:
row,IC50 [nM],SMILES
1,> 2000,"COCCCc1cnc(-c2cnc3c(cnn3C)c2)c(N2CCC(C(=O)O)CC2)n1 [Compound 217, 1-(6-(3-methoxypropyl)-3-(1-methyl-1H-pyrazolo[3,4-b]pyridin-5-yl)pyrazin-2-yl)piperidine-4-carboxylic acid]"
2,> 2000,"COCCCc1cnc(-c2cnc3c(c2)ncn3C)c(N2CCC(C(=O)O)CC2)n1 [Compound 219, 1-(6-(3-methoxypropyl)-3-(3-methyl-3H-imidazo[4,5-b]pyridin-6-yl)pyrazin-2-yl)piperidine-4-carboxylic acid]"
3,< 500,"COCCCc1cnc(-c2cc(Cl)c3occc3c2)c(N2CCC(C(=O)O)CC2)n1 [Compound 224, 1-(3-(7-chlorobenzofuran-5-yl)-6-(3-methoxypropyl)pyrazin-2-yl)piperidine-4-carboxylic acid]"
4,< 500,"COCCCc1cnc(-c2cc(F)c3sccc3c2)c(N2CCC(C(=O)O)CC2)n1 [Compound 225, 1-(3-(7-fluorobenzo[b]thiophen-5-yl)-6-(3-methoxypropyl)pyrazin-2-yl)piperidine-4-carboxylic acid]"
5,< 500,"COCCCc1cnc(-c2ccc3sccc3c2)c(N2CCC(C(=O)O)CC2)n1 [Compound 226, 1-(3-(benzo[b]thiophen-5-yl)-6-(3-methoxypropyl)pyrazin-2-yl)piperidine-4-carboxylic acid]"
6,< 500,"COCCCc1cnc(-c2ccc(S(C)(=O)=O)cc2)c(N2CCC(C(=O)O)CC2)n1 [Compound 230, 1-(6-(3-methoxypropyl)-3-(4-(methylsulfonyl)phenyl)pyrazin-2-yl)piperidine-4-carboxylic acid]"
7,> 2000,"COCCCc1cnc(-c2ccc3c(c2)CCS3(=O)=O)c(N2CCC(C(=O)O)CC2)n1 [Compound 233, 1-(3-(1,1-dioxido-2,3-dihydrobenzo[b]thiophen-5-yl)-6-(3-methoxypropyl)pyrazin-2-yl)piperidine-4-carboxylic acid]"
8,> 2000,"COCCCc1cnc(-c2ccc3c(c2)CCCS3(=O)=O)c(N2CCC(C(=O)O)CC2)n1 [Compound 234, 1-(3-(1,1-dioxidothiochroman-6-yl)-6-(3-methoxypropyl)pyrazin-2-yl)piperidine-4-carboxylic acid]"
9,< 500,"COCCCc1cnc(-c2cc(C)c3occc3c2)c(N2CCC(C(=O)O)CC2)n1 [Compound 239, 1-(6-(3-methoxypropyl)-3-(7-methylbenzofuran-5-yl)pyrazin-2-yl)piperidine-4-carboxylic acid]"
10,500 to 2000,"COCCCc1cnc(-c2ccc3occ(C)c3c2)c(N2CCC(C(=O)O)CC2)n1 [Compound 242, 1-(6-(3-methoxypropyl)-3-(3-methylbenzofuran-5-yl)pyrazin-2-yl)piperidine-4-carboxylic acid]"
11,< 500,"COCCCc1cnc(-c2ccc3occ(Cl)c3c2)c(N2CCC(C(=O)O)CC2)n1 [Compound 253, 1-(3-(3-chlorobenzofuran-5-yl)-6-(3-methoxypropyl)pyrazin-2-yl)piperidine-4-carboxylic acid]"
